Results reported in PubChem BioAssay (NCI).
Where “and” joins values, the source holds several entries; their conditions need not be identical. Equal values may be shown once.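 Following 48 hours of exposure in 96-well plates, responses at five concentrations were used to interpolate endpoints linearly. At the GI50, growth is halved. TGI is the concentration that stops growth completely.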

Experiments:
Experiment in all cases: DTP human tumour cell line panel, 48 h
CCRF-CEM leukemia = system: CCRF-CEM leukemia
M14 melanoma = system: M14 melanoma
NCI-H23 lung = system: NCI-H23 lung
NCI/ADR-RES ovarian = system: NCI/ADR-RES ovarian
OVCAR-8 ovarian = system: OVCAR-8 ovarian
RPMI-8226 leukemia = system: RPMI-8226 leukemia
SK-MEL-28 melanoma = system: SK-MEL-28 melanoma
SNB-19 CNS = system: SNB-19 CNS
SNB-75 CNS = system: SNB-75 CNS
TK-10 renal = system: TK-10 renal

| Compound | GI50 (CCRF-CEM leukemia) | TGI (CCRF-CEM leukemia) | GI50 (M14 melanoma) | TGI (M14 melanoma) | GI50 (NCI-H23 lung) | TGI (NCI-H23 lung) | GI50 (NCI/ADR-RES ovarian) | TGI (NCI/ADR-RES ovarian) [µM] | GI50 (OVCAR-8 ovarian) | TGI (OVCAR-8 ovarian) | GI50 (RPMI-8226 leukemia) | TGI (RPMI-8226 leukemia) | GI50 (SK-MEL-28 melanoma) | TGI (SK-MEL-28 melanoma) | GI50 (SNB-19 CNS) | TGI (SNB-19 CNS) [µM] | GI50 (SNB-75 CNS) | TGI (SNB-75 CNS) | GI50 (TK-10 renal) | TGI (TK-10 renal) |
| --- | --- | --- | --- | --- | --- | --- | --- | --- | --- | --- | --- | --- | --- | --- | --- | --- | --- | --- | --- | --- |
| CC(C)[C@@H]1NC(=O)[C@]2(C)CSC(=N2)c2csc(n2)CNC(=O)C[C@@H](/C=C/CCS)OC1=O | 276 nM | > 100 µM | 83.5 nM | 52.7 µM | 219 nM | > 30.6 µM | 2670 nM | > 100 | 85.8 nM | > 100 µM | 563 nM | 6.62 µM | 0.0564 µM | 7.01 µM | 168 nM | > 44.3 | 68.6 nM | > 100 µM | 0.0864 µM | 1.35 µM |
| Oc1ccc(Cl)cc1Cc1cc(Cl)cc(Cc2cc(Cl)ccc2O)c1O | – | 15.3 µM | – | 6.71 µM | – | 6.62 µM | – | 6.82 | – | 16.8 µM | – | 5.49 µM | – | 14.6 µM | – | 14.6 | – | 10.3 µM | – | 9.17 µM |
| O=C1C(CN(Cc2ccccc2)Cc2ccccc2)CCCC1CN(Cc1ccccc1)Cc1ccccc1 (configuration not stated) | – | 14.2 µM and > 100 µM | 17200 nM and 71700 nM | 31.1 µM and > 100 µM | 32200 nM and > 100000 nM | 50 µM and > 100 µM | – | > 100 | 22900 nM and > 95500 nM | 43.1 µM and > 100 µM | – | > 100 µM | 21 µM and > 100 µM | 38.8 µM and > 100 µM | – | > 100 | 31100 nM and 76200 nM | 49.1 µM and > 100 µM | 14.7 µM and > 100 µM | 28.3 µM and > 100 µM |
| Cc1c(NC(=O)CCCl)c(=O)oc2c(C)c3occc(=O)c3cc12 | – | > 100 µM | – | > 100 µM | – | > 100 µM | – | > 100 | – | > 100 µM | – | > 100 µM | – | > 100 µM | – | > 100 | – | > 100 µM | – | > 100 µM |
| Nc1cccc(-c2nc3sccn3c2-c2ccnc(NCCCNS(=O)(=O)c3ccc(C(F)(F)F)cc3)n2)c1 | 3060 nM | 14.4 µM | 3890 nM | 15.3 µM | 5070 nM | 40.9 µM | 3360 nM | 56.9 | 3490 nM | 44.9 µM | 2450 nM | 6.54 µM | 5.07 µM | 26.7 µM | 8330 nM | > 100 | 1830 nM | 23.1 µM | 11.1 µM | > 100 µM |
| Cc1nc(NC(=O)COc2cccc(/C=C3\COc4ccccc4C3=O)c2)sc1C | 3420 nM | > 100 µM | 1830 nM | 3.75 µM | 1920 nM | 4.12 µM | 3120 nM | 9.79 | 2360 nM | 5.78 µM | 14800 nM | > 100 µM | 1.79 µM | 3.32 µM | 3380 nM | 13.6 | 5490 nM | 18.7 µM | 2.31 µM | 4.08 µM |
| Cc1ccccc1NC(=O)N/C(N)=N/c1nc2ccccc2s1 | 40.2 nM | > 100 µM | 34.8 nM | 1.41 µM | 209 nM | > 100 µM | 37.2 nM | 5.84 | 97.9 nM | > 43.2 µM | 40.2 nM | 2.46 µM | 3.37 µM | > 100 µM | 104 nM | > 100 | < 16.5 nM | 0.446 µM | 3.78 µM | > 100 µM |
| CCNC(=O)Nc1ccc(-c2nc3c(c(N4CCOC[C@@H]4C)n2)CCN(C2COC2)C3)cc1 | 525 nM and 393 nM | > 100 µM | 418 nM and 323 nM | > 100 µM | 690 nM and 512 nM | > 100 µM | 2870 nM and 1780 nM | > 100 | 460 nM and 534 nM | > 100 µM | 286 nM and 218 nM | 49 µM and > 8.49 µM | 0.199 µM and 0.157 µM | 5.39 µM and 2.24 µM | 303 nM and 450 nM | > 21.6 | 104 nM and 73.7 nM | 1.13 µM and 1.1 µM | 0.195 µM and 0.128 µM | 3.86 µM and 3.13 µM |
| NC(=O)c1ncn(C2OC(CO)C(O)C2O)n1 (configuration not stated) | 4730 nM | 49.6 µM | > 100000 nM | > 100 µM | > 100000 nM | > 100 µM | 54600 nM | > 100 | 45400 nM | > 100 µM | 80500 nM | > 100 µM | > 100 µM | > 100 µM | – | – | – | – | > 100 µM | > 100 µM |
| COc1cc(C2=Nc3c/c(=C\c4c(O)[nH]c5ccc(Cl)cc45)ccc3=N2)cc(OC)c1OC | 2290 nM | 8.55 µM | 1710 nM | 3.83 µM | 1960 nM | 7.61 µM | 5960 nM | 54.7 | 1950 nM | 5.24 µM | 2040 nM | 5.77 µM | 3.2 µM | 12.7 µM | 4550 nM | 13.5 | 1780 nM | 10.6 µM | 5.76 µM | 17.4 µM |
| CN(C)c1cc2c(Nc3ccc4nc(Cc5ccccc5)[nH]c4c3)ncnc2cn1 | > 18700 nM | > 25 µM | > 25000 nM | > 25 µM | > 23900 nM | > 25 µM | > 25000 nM | > 25 | > 17400 nM | > 25 µM | 11400 nM | > 25 µM | > 12.4 µM | > 20 µM | > 25000 nM | > 25 | > 13900 nM | > 25 µM | 4.9 µM | > 25 µM |
| CCCCCCCCCCCCCCCCCC(=O)[O][Sn]([CH2]CCC)([CH2]CCC)[CH2]CCC | 170 nM | – | 169 nM | 0.32 µM | 127 nM | 0.287 µM | 177 nM | 0.438 | 197 nM | 0.451 µM | 139 nM | 0.602 µM | 0.159 µM | 0.31 µM | 167 nM | 0.338 | 124 nM | 0.269 µM | 0.164 µM | 0.311 µM |
| O=C(/C=C/c1ccccc1O)c1ccccc1 | 2640 nM | 8.19 µM | 8230 nM | 21.4 µM | 9630 nM | 23.2 µM | 21700 nM | > 100 | 4390 nM | 17.7 µM | 2440 nM | 6.68 µM | 9.5 µM | 22 µM | 12600 nM | 25.3 | – | – | 11.9 µM | 24.7 µM |
| COc1cc(-c2nn(C)nc2-c2cc3ccccc3s2)cc(OC)c1OC | 220 nM | > 100 µM | 76.9 nM | > 100 µM | 392 nM | > 100 µM | 103 nM | > 100 | 352 nM | > 100 µM | 362 nM | > 100 µM | 13 µM | > 100 µM | 254 nM | > 100 | – | – | 0.578 µM | > 100 µM |
